# Source: patent publication US7517857B2, “Immune-modulating peptide” (POSCO, priority 2002, dated 2009)
# Target: T1, FPRL1 (Homo sapiens, UniProt P25090)
# T1 construct: expressed in transfected cells; host or cells: RBL-2H3 (rat basophilic leukemia) cells, G418-selected
# T1 sequence (P25090 1-351): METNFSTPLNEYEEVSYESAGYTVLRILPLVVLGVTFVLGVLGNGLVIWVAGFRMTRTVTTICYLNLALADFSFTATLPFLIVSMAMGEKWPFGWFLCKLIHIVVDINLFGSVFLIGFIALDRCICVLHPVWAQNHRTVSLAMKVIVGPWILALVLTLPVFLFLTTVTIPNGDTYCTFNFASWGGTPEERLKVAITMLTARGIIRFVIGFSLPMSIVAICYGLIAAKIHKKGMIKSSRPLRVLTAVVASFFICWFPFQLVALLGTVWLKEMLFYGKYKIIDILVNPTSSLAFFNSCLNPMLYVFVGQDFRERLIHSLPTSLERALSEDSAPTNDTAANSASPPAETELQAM
# Experiment: ERK phosphorylation in FPRL1-expressing RBL-2H3 cells (immunoblot)
# Format: cell-based
# Protocol: Cultured RBL-2H3 cells were aliquoted into 2×10^6 cells and stimulated with the indicated concentrations of WKYMVm and the peptides of the present invention for the indicated lengths of time. FPR- or FPRL1-expressing RBL-2H3 cells were stimulated with 1 μM WKYMVm for various periods of time (FIG. 3A). Two cells were preincubated with a vehicle or 100 ng/ml of PTX (24 hr), 50 μM of LY294002 (15 min), 5 μM of GFX (15 min), 10 μM BAPTA/AM (60 min), or 50 μM PD98059 (60 min) prior to 1 μM of WKYMVm treatment (FIG. 3B). FPR- or FPRL1-expressing RBL2H3 cells were stimulated with 10 μM of the peptides of the present invention for 2 min or 5 min, respectively (FIG. 3C).
# After stimulation, the cells were washed with serum-free RPMI and lysed in a lysis buffer (20 mM Hepes, pH 7.2, 10% glycerol, 150 mM NaCl, 1% Triton X-100, 50 mM NaF, 1 mM Na3VO4, 10 μg/ml leupeptin, 10 μg/ml aprotinin, and 1 mM phenylmethylsulfonyl fluoride). The detergent-insoluble materials were pelleted by centrifugation (12,000×g, 15 min, at 4° C.), and the soluble supernatant fraction was removed and stored at −80° C. or used immediately. Protein concentrations in the lysates were determined using the Bradford protein assay reagent.
# Each sample ([…] of protein) was subjected to 10% SDS-PAGE and phosphorylated ERK was determined by an immunoblot analysis with an anti-phospho-ERK antibody. Protein samples were prepared for electrophoresis by addition of a concentrated sample buffer. The portions in the samples were then separated by an 10% SDS-polyacrylamide gel using the buffer system described by Laemmli (17).
# Following the electrophoresis, a western blot analysis with an anti-ERK2 antibody was performed to confirm that the same amounts of samples were used for the experiments. The proteins were blotted onto nitrocellulose membranes. The nitrocellulose membranes were then blocked by incubation with TBS (Tris-buffered saline, 0.05% Tween-20) containing 5% non-fat dry milk. Subsequently, the membranes were incubated with anti-phospho-ERK antibody, anti-phospho-Akt antibody or anti-Akt antibody washed with TBS. For a PKC translocation assay, an antibody for PKC isozyme-specific was incubated. Antigen-antibody complexes were visualized after incubating the membrane with a 1:5000 diluted goat anti-rabbit IgG or goat anti-mouse IgG antibody coupled to horseradish peroxidase and using the enhanced chemiluminescence detection system.
structure (smiles),measurement,setting,value
"CSCC[C@H](NC(=O)[C@H](Cc1ccc(O)cc1)NC(=O)[C@H](CCCCN)NC(=O)[C@@H](N)Cc1c[nH]c2ccccc12)C(=O)N[C@H](C(=O)N[C@H](CCSC)C(N)=O)C(C)C [WKYMVm-NH2, Trp-Lys-Tyr-Met-Val-D-Met-NH2, reference compound]",time of maximal ERKs activity after peptide treatment,1 μM WKYMVm,5 min
same,ERKs phosphorylation/activation,10 μM peptides 5 min (WKYMVm time course 1 μM),induced transient activation of ERKs
